Source: PMC4965013, “Open Source Drug Discovery with the Malaria Box Compound Collection for Neglected Diseases and Beyond” (PLoS Pathogens, 2016)

How the values were obtained:
[1] = tested on: P. falciparum 3D7 trophozoites; test: Metabolomic fingerprint profiling LC-MS; assay type: cell-based, Plasmodium falciparum; design: UDP-D-glucose / ADP-D-glucose: unit not given here; details: for Acetyllysine / N-acetyl-L-ornithine / N-carbamoyl-L-aspartate / NADPH / dAMP / dCMP / dTDP / dTMP / dTTP / dihydroorotate / orotate / DLH / DLS/SDL/SID / PD / PEE / PVNF / 3-phosphoglycerate / ADP-D-glucose / ATP / CDP / D-sedoheptulose-1/7-phosphate / FAD / GMP / NAD+ / NADP+ / Octoluse Bisphosphate / Pyroglutamic acid / UDP-D-glucose / UDP-D-glucuronate / UDP-N-acetyl-glucosamine / UDP / UMP / UTP / a-ketoglutarate / citrate/isocitrate / cytidine / dATP / dGMP/AMP / fumarate / glucose-1/6-phosphate / glycerate / guanine / guanosine / hypoxanthine / indole / inosine / nicotinate / ornithine / phosphoenolpyruvate / pyruvate / ribose-phosphate / sarcosine/alanine / sn-glycerol-3-phosphate / succinate/methylmalonic acid / uridine / xanthosine: S2 Table Metabolomics; for Acetyllysine: metabolite Acetyllysine; for N-acetyl-L-ornithine: metabolite N-acetyl-L-ornithine; for N-carbamoyl-L-aspartate: metabolite N-carbamoyl-L-aspartate; for NADPH: metabolite NADPH; for dAMP: metabolite dAMP; for dCMP: metabolite dCMP; for dTDP: metabolite dTDP; for dTMP: metabolite dTMP; for dTTP: metabolite dTTP; for dihydroorotate: metabolite dihydroorotate; for orotate: metabolite orotate; for DLH: peptide DLH; for DLS/SDL/SID: peptide DLS/SDL/SID; for PD: peptide PD; for PEE: peptide PEE; for PVNF: peptide PVNF; for 3-phosphoglycerate: metabolite 3-phosphoglycerate; for ADP-D-glucose: metabolite ADP-D-glucose; for ATP: metabolite ATP; for CDP: metabolite CDP; for CDP / D-sedoheptulose-1/7-phosphate / GMP / Octoluse Bisphosphate / UDP / UMP / UTP / citrate/isocitrate / dGMP/AMP / fumarate / glucose-1/6-phosphate / glycerate / guanine / guanosine / inosine / pyruvate / sarcosine/alanine / succinate/methylmalonic acid / uridine / xanthosine: change in metabolite level after compound treatment; for D-sedoheptulose-1/7-phosphate: metabolite D-sedoheptulose-1/7-phosphate; for FAD: metabolite FAD; for GMP: metabolite GMP; for NAD+: metabolite NAD+; for NADP+: metabolite NADP+; for Octoluse Bisphosphate: metabolite Octoluse Bisphosphate; for Pyroglutamic acid: metabolite Pyroglutamic acid; for UDP-D-glucose: metabolite UDP-D-glucose; for UDP-D-glucuronate: metabolite UDP-D-glucuronate; for UDP-N-acetyl-glucosamine: metabolite UDP-N-acetyl-glucosamine; for UDP: metabolite UDP; for UMP: metabolite UMP; for UTP: metabolite UTP; for a-ketoglutarate: metabolite a-ketoglutarate; for citrate/isocitrate: metabolite citrate/isocitrate; for cytidine: metabolite cytidine; for dATP: metabolite dATP; for dGMP/AMP: metabolite dGMP/AMP; for fumarate: metabolite fumarate; for glucose-1/6-phosphate: metabolite glucose-1/6-phosphate; for glycerate: metabolite glycerate; for guanine: metabolite guanine; for guanosine: metabolite guanosine; for hypoxanthine: metabolite hypoxanthine; for indole: metabolite indole; for inosine: metabolite inosine; for 2_3-Diphosphoglyceric acid / 4-phosphopantothenate / 6-phospho-D-gluconate / FMN / IMP / Pyrophosphate / Sedoheptoluse bisphosphate / cyclic-AMP / glutathione disulfide / lactate / myo-inositol: metabolite level change after treatment; for nicotinate: metabolite nicotinate; for ornithine: metabolite ornithine; for phosphoenolpyruvate: metabolite phosphoenolpyruvate; for pyruvate: metabolite pyruvate; for ribose-phosphate: metabolite ribose-phosphate; for sarcosine/alanine: metabolite sarcosine/alanine; for sn-glycerol-3-phosphate: metabolite sn-glycerol-3-phosphate; for succinate/methylmalonic acid: metabolite succinate/methylmalonic acid; for uridine: metabolite uridine; for xanthosine: metabolite xanthosine
P. falciparum = test: EC50 listed in S2 Table Metabolomics (used to set the concentration tested); assay type: cell-based; details: Plasmodium falciparum; EC50 used for Factor_XEC50 in metabolomics; read-out: EC50_nM

COc1ccccc1CNC(=O)CCn1c(=O)[nH]c2ccccc2c1=O [MMV665916]
Acetyllysine [1]: 0.3638 | N-acetyl-L-ornithine [1]: 0.3943 | N-carbamoyl-L-aspartate [1]: -0.2097 | NADPH [1]: -0.7222 | dAMP [1]: 0.5335 | dCMP [1]: -0.1283 | dTDP [1]: 0.2837 | dTMP [1]: 0.1911 | dTTP [1]: 0.1028 | dihydroorotate [1]: 0.195 | orotate [1]: 0.1648 | DLH [1]: -0.3906 | DLS/SDL/SID [1]: -0.1223 | PD [1]: 0.1255 | PEE [1]: 0.2968 | PVNF [1]: -0.3118 | 3-phosphoglycerate [1]: 0.2339 | ADP-D-glucose [1]: 0.1724 | ATP [1]: 0.1531 | CDP [1]: 0.2423 | D-sedoheptulose-1/7-phosphate [1]: 0.1783 | FAD [1]: 0.06654 | GMP [1]: -0.759 | NAD+ [1]: 0.08579 | NADP+ [1]: 0.1944 | Octoluse Bisphosphate [1]: 0.5392 | Pyroglutamic acid [1]: -0.1569 | UDP-D-glucose [1]: 0.1671 | UDP-D-glucuronate [1]: 0.1875 | UDP-N-acetyl-glucosamine [1]: 0.2144 | UDP [1]: 0.1783 | UMP [1]: -0.6315 | UTP [1]: 0.2956 | a-ketoglutarate [1]: -0.329 | citrate/isocitrate [1]: -0.5155 | cytidine [1]: -0.1275 | dATP [1]: 0.146 | dGMP/AMP [1]: 0.3579 | fumarate [1]: -0.07198 | glucose-1/6-phosphate [1]: -0.1463 | glycerate [1]: 0.2881 | guanine [1]: -0.1565 | guanosine [1]: -0.3335 | hypoxanthine [1]: -0.2904 | indole [1]: -0.1941 | inosine [1]: -0.04044 | 2_3-Diphosphoglyceric acid [1]: 0.5062 | 4-phosphopantothenate [1]: 0.1361 | 6-phospho-D-gluconate [1]: 0.2552 | FMN [1]: 0.1915 | IMP [1]: 0.3796 | Pyrophosphate [1]: 0.2568 | Sedoheptoluse bisphosphate [1]: 0.5745 | cyclic-AMP [1]: 0.1551 | glutathione disulfide [1]: 0.2989 | lactate [1]: -0.2145 | myo-inositol [1]: 0.9008 | nicotinate [1]: -0.1745 | ornithine [1]: 0.1369 | phosphoenolpyruvate [1]: 0.02242 | pyruvate [1]: -0.2103 | ribose-phosphate [1]: -0.4062 | sarcosine/alanine [1]: 0.2908 | sn-glycerol-3-phosphate [1]: -0.1634 | succinate/methylmalonic acid [1]: -0.1615 | uridine [1]: -0.1737 | xanthosine [1]: -0.4685 | EC50 (P. falciparum): 72.6 nM

COc1ccc(C(C)=O)cc1N1C(=O)C2C(C1=O)C1(c3ccccc3)C(=O)C2(c2ccccc2)C(c2ccc(C)cc2)=C1c1ccc(C)cc1 (stereo not shown) [MMV007695]
Acetyllysine [1]: -0.2737 | N-acetyl-L-ornithine [1]: -0.4583 | N-carbamoyl-L-aspartate [1]: 0.3458 | NADPH [1]: 1.835 | dAMP [1]: 0.454 | dCMP [1]: -0.0001746 | dTDP [1]: 0.6225 | dTMP [1]: 0.1739 | dTTP [1]: 0.01162 | dihydroorotate [1]: -0.0741 | orotate [1]: 0.786 | DLH [1]: 0.4365 | DLS/SDL/SID [1]: 0.2312 | PD [1]: -1.42 | PEE [1]: 0.3408 | PVNF [1]: 0.2956 | 3-phosphoglycerate [1]: -0.5907 | ADP-D-glucose [1]: 0.2728 | ATP [1]: 0.4735 | CDP [1]: 0.708 | D-sedoheptulose-1/7-phosphate [1]: 1.674 | FAD [1]: 0.07228 | GMP [1]: -0.9101 | NAD+ [1]: 0.2072 | NADP+ [1]: 0.5403 | Octoluse Bisphosphate [1]: -1.5013 | Pyroglutamic acid [1]: 0.5983 | UDP-D-glucose [1]: 0.2909 | UDP-D-glucuronate [1]: 0.7314 | UDP-N-acetyl-glucosamine [1]: 0.05292 | UDP [1]: 0.6476 | UMP [1]: -1.868 | UTP [1]: 0.1535 | a-ketoglutarate [1]: 0.5943 | citrate/isocitrate [1]: 1.421 | cytidine [1]: 0.7161 | dATP [1]: 0.1897 | dGMP/AMP [1]: 0.2576 | fumarate [1]: -0.8988 | glucose-1/6-phosphate [1]: -0.6568 | glycerate [1]: -0.4271 | guanine [1]: 0.5906 | guanosine [1]: -0.9684 | hypoxanthine [1]: 0.7986 | indole [1]: 0.2572 | inosine [1]: -0.5212 | 2_3-Diphosphoglyceric acid [1]: -0.9184 | 4-phosphopantothenate [1]: -0.9898 | 6-phospho-D-gluconate [1]: -0.8607 | FMN [1]: -0.08531 | IMP [1]: -0.684 | Pyrophosphate [1]: -1.54 | Sedoheptoluse bisphosphate [1]: -1.405 | cyclic-AMP [1]: -0.504 | glutathione disulfide [1]: -0.8249 | lactate [1]: -1.404 | myo-inositol [1]: -3.565 | nicotinate [1]: 1.458 | ornithine [1]: -0.113 | phosphoenolpyruvate [1]: -0.01223 | pyruvate [1]: -0.001929 | ribose-phosphate [1]: -0.0001746 | sarcosine/alanine [1]: -1.812 | sn-glycerol-3-phosphate [1]: -1.169 | succinate/methylmalonic acid [1]: 0.009176 | uridine [1]: 0.3917 | xanthosine [1]: 0.304 | EC50 (P. falciparum): 179 nM
